Like-named read-outs stand apart in the source and are kept apart here.
What was measured:
genotype 1b p7 = target: T1, genotype 1b p7 (Hepatitis C virus genotype 1b, UniProt O92972); experiment: Liposome carboxyfluorescein dye release assay for p7 channel activity; format: biochemical; conditions: genotype 1b p7 in vitro, prototype control, read-out: median inhibitory concentration [IC50]
T1 construct: selected for testing against genotype 1b p7 in vitro; made in house; host or cells: Escherichia coli BL21(DE3)
T1 sequence (O92972 747-809): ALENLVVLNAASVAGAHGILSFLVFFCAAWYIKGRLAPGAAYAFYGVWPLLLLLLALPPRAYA
Protocol: Liposome carboxyfluorescein release assays were conducted as described previously.[13],[15],[28]
(§1) Figure 4 Selection of novel, structurally diverse p7 inhibitors. In silico screening using p7 channel models as a template derived a range of Lipinski-compliant potential inhibitors of the p7 channel complex and the top 30 were selected for testing as proof-of-principle. (A) Liposome dye release assay showing endpoint values compounds with activity against wild-type p7 at 250 nM that were subsequently selected for cell culture studies. Results are the average of two separate experiments with each condition in duplicate and are expressed as a percentage of the untreated protein value following baseline subtraction (liposomes alone). […] (B) Inhibition of infectious virus release from Huh7 cells transfected with J4/JFH-1 RNA using novel compounds (400 nM). Selected compounds show minimal effect on intracellular infectivity, replicon replication and have no toxic effects (see Supporting Fig. 5 and Table 2). […] (C) Structures of selected initial hit compounds. (D) Predicted docking poses of rimantadine novel compounds at the allosteric binding site (calculated in Glide, Schrodinger). Key interacting residues are highlighted.

Leu20Phe J4/JFH-1 = experiment: HCV spread following infection at low M.O.I., NS5A foci counted; format: cell-based, hepatitis C virus; conditions: low multiplicity infection
From the text: Figure 5 Specificity of novel p7 inhibitors. Screening lead hits LDS19 and 21 were examined for specificity against wild-type and rimantadine resistant HCV. (A) Titration of LDS 19 and 21 against Huh7 cells transfected with both wild-type (diamonds) and Leu20Phe (squares) J4/JFH-1 RNA, showing effects on released infectivity. Graph plots the average released titers from duplicate wells from at least two separate experiments, normalized to the 100% untreated value. Error bars represent normalized percent error of the mean between experiments (*P < 0.05). (B) Effects of p7 inhibitors on HCV spread following infection at low M.O.I (0.0001 FFU/cell). Huh7 cells were infected in triplicate overnight with wild-type (black) and Leu20Phe (white) J4/JFH-1 and then media replaced after extensive washing with that containing inhibitors. Fluorescent NS5A foci were counted at 72 hours postinfection. […] Error bars represent normalized percent error of the mean (*P < 0.05, **P < 0.01). […] Results are the average of two separate experiments with duplicate wells and error bars are normalized percent error of the mean between experiments.

J4/JFH-1 (GT1b/2a HCV) = experiment: Inhibition of infectious virus release from Huh7 cells transfected with J4/JFH-1 RNA (focus forming assay); format: cell-based, hepatitis C virus
Protocol: as §1
Figure 6 Effects of novel inhibitors against multiple HCV genotypes. […] Results are representative of two independent experiments and are the average of triplicate wells. Error bars represent standard deviations. […]

J4/JFH-1(L20F) = conditions: subcytotoxic concentrations; cited from earlier work

Row | SMILES | IC50 (genotype 1b p7) [µM] | sensitivity of Leu20Phe HCV spread to compound (Leu20Phe J4/JFH-1) | IC50 (J4/JFH-1 (GT1b/2a HCV); Hepatitis C virus, GT1B, Huh-7, read-out: ∼IC50, infectious virus release) [µM] | effect on Leu20Phe infectious virion production (J4/JFH-1(L20F)) | IC50 (J4/JFH-1 (GT1b/2a HCV); J4/JFH-1 RNA transfected Huh7, prototype shown for comparison, read-out: ∼IC50, infectious virus release) [µM]
1 | CC(N)C12CC3CC(CC(C3)C1)C2 (centres unmarked) [rimantadine] | ~40 | insensitive | ~40 | ineffective | 
2 | CCCCCCCCCN1C[C@H](O)[C@@H](O)[C@H](O)[C@H]1CO [NN-DNJ] |  |  |  |  | ~20
